Key:
HUNK = target: T1, HUNK (Homo sapiens, UniProt P57058); assay: KINOMEscan binding assay; parameters: purchased Eurofins DiscoverX (KINOMEscan scanMAX service); conditions: 300 nM; read-out: inhibition of kinase binding (KINOMEscan)
T1 sequence (P57058 1-714): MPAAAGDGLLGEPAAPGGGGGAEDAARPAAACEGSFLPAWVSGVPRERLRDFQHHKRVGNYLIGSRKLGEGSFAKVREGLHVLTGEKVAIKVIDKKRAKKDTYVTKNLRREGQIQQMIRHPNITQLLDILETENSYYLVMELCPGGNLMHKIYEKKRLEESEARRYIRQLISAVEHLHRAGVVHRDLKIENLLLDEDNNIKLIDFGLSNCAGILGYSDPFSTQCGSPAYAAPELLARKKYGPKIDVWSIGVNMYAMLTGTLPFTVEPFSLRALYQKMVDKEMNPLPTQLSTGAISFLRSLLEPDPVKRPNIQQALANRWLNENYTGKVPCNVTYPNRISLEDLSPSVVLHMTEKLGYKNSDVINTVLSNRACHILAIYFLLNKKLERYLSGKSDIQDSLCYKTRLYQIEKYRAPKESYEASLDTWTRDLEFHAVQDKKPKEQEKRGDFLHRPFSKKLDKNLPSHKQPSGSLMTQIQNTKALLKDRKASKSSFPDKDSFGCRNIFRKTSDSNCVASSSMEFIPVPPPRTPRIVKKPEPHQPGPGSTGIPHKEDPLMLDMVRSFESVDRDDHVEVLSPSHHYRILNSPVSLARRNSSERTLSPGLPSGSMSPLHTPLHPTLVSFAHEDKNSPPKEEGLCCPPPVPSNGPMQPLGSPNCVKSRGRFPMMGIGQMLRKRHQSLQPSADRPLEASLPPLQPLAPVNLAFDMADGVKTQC

BTK = BTK (Homo sapiens, UniProt Q06187); assay: KINOMEscan binding assay; conditions: 300 nM; read-out: inhibition of kinase binding (KINOMEscan)
BTK, sequence (Q06187 whole entry): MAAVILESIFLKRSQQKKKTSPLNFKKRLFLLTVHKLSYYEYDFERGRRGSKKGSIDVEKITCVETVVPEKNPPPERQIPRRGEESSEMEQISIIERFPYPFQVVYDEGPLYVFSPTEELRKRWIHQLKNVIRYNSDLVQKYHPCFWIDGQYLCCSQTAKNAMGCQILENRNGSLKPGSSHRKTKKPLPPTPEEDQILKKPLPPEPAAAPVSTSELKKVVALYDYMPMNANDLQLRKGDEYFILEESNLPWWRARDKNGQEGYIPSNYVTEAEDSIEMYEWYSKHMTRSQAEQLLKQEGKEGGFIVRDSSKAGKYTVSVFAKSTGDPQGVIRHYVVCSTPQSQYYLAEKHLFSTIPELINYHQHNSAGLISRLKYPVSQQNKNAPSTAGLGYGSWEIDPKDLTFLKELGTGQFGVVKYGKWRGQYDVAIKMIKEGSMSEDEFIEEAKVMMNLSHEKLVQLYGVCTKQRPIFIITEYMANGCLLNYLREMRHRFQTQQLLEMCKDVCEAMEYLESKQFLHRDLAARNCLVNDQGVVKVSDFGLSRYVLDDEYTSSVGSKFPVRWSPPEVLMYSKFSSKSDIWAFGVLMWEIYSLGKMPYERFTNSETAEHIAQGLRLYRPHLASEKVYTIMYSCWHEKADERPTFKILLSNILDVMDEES

TMD8 cells = assay: Cell viability assay (CellTiter-Glo); type: cell-based; conditions: Homo sapiens, 72 h
Method: (§1) After incubation for 72 h at 37°C and 5% CO2/95% air, relative light units (RLU) were measured with the CellTiter-Glo Luminescent Cell Viability Assay (Promega, Madison, WI, USA). […] GraphPad Prism (version 5.01J or 5.04; GraphPad Software, Inc., San Diego, CA, USA) and its base settings were used for initial values and convergence conditions.

U-2932 cells = assay: Cell viability assay (CellTiter-Glo); type: cell-based; conditions: Homo sapiens, U2932, 72 h
Method: as §1

EGFR(G719S) = EGFR(G719S) (Homo sapiens, UniProt P00533, G719S); assay: biochemical; parameters: KINOMEscan scanMAX competition binding, DNA-tagged kinases, qPCR read-out, percent control at 300 nM; conditions: read-out: Percent control / Tirabrutinib
EGFR(G719S), sequence (P00533 whole entry G719S): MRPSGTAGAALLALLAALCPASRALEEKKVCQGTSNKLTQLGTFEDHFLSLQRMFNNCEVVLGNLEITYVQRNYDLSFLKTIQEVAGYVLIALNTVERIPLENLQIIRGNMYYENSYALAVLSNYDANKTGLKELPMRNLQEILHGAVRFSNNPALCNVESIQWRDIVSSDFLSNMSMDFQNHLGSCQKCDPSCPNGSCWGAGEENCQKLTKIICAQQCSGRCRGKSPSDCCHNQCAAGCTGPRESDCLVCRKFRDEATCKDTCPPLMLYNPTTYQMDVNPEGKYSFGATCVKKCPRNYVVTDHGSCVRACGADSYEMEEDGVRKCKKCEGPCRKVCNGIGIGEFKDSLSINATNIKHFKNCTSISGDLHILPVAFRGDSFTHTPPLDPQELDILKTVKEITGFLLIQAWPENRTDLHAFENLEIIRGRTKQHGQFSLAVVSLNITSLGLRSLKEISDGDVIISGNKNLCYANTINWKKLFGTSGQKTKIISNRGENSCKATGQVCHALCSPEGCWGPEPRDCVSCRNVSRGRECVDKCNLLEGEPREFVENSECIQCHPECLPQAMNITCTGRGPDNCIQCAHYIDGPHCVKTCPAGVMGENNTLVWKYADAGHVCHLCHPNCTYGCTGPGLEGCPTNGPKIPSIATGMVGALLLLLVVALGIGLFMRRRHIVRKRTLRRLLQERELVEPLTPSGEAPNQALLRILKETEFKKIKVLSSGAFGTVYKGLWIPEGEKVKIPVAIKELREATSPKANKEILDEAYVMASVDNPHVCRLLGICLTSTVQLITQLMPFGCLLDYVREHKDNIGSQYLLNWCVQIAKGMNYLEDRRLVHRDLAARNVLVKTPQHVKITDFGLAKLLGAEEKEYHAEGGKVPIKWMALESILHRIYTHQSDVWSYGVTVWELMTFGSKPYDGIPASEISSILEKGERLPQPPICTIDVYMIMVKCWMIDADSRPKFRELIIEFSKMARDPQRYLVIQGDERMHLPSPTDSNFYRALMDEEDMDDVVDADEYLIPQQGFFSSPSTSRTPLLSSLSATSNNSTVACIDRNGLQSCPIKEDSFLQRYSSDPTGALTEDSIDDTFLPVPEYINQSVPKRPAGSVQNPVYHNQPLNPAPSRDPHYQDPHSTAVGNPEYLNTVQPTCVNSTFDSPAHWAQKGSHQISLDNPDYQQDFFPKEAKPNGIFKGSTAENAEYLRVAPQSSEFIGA

TMD8 xenograft tumor = assay: Gene expression microarray analysis of TMD8 xenograft tumors
Method: The TMD8 xenograft model was also used for microarray analysis. […] After 21 days of drug administration and 24 h after the final dose, the mice underwent laparotomy under isoflurane anesthesia and were sacrificed by exsanguination. Tumors were collected and quickly frozen with liquid nitrogen. RNA extraction and gene expression microarray analysis were performed at LSI Medience Corporation (Tokyo, Japan) using the miRNeasy® mini kit (Qiagen, Hilden, Germany) and the Low Input Quick Amp Labeling Kit (Agilent Technologies, Santa Clara, CA, USA) according to the manufacturers’ instructions. The DNA microarray results were processed using Expressionist Analyst (GeneData, Basel, Switzerland) and Excel.

MEK6 = target: T2, MEK6 (Homo sapiens, UniProt P52564); assay: biochemical; parameters: KINOMEscan scanMAX competition binding, DNA-tagged kinases, qPCR read-out, percent control at 300 nM; conditions: read-out: Percent control / Zanubrutinib
T2 construct: gene MAP2K6
T2 sequence (P52564 whole entry): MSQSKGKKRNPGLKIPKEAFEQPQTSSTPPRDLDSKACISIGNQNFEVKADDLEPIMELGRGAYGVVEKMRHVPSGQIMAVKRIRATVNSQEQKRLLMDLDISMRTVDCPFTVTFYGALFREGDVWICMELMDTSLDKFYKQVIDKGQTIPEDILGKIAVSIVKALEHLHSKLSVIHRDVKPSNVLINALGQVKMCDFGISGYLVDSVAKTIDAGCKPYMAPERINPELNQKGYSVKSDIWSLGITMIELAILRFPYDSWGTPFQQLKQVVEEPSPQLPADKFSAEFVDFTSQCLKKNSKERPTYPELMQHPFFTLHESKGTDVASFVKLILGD

[1] = at 100 nM, read-out: maximum growth inhibition rate
[2] = read-out: IC50 of growth inhibition

SMILES | inhibition at 0.3 µM (HUNK) [%] | inhibition at 0.3 µM (BTK) [%] | inhibition at 0.1 µM (TMD8 cells; [1]) [%] | IC50 (TMD8 cells; [2]) [nM] | inhibition at 0.1 µM (U-2932 cells; [1]) [%] | IC50 (U-2932 cells; [2]) [nM] | remaining binding at 0.3 µM (EGFR(G719S)) [%] | number of downregulated probes (TMD8 xenograft tumor; 10 mg/kg BID 21 days vs vehicle, fold change <0.5, P < 0.01) | number of upregulated probes (TMD8 xenograft tumor; 10 mg/kg BID 21 days vs vehicle, fold change >2, P < 0.01) | PRDM1 expression (TMD8 xenograft tumor; TMD8 xenograft, tirabrutinib vs vehicle) | remaining binding at 0.3 µM (MEK6) [%]
CC#CC(=O)N1CC[C@@H](n2c(=O)n(-c3ccc(Oc4ccccc4)cc3)c3c(N)ncnc32)C1 [Tirabrutinib] | 89 | 97 | 98.6 | 3.59 | 30.8 | 27.6 | 85 | 575 | 549 | repressed | 
C=CC(=O)N1CCC([C@@H]2CCNc3c(C(N)=O)c(-c4ccc(Oc5ccccc5)cc4)nn32)CC1 [Zanubrutinib] |  |  |  |  |  |  |  |  |  |  | 75

— article PMC10004634 (PLOS ONE, 2023)
